Consider 1 compound from US20050063956A1, “Method and device for attracting insects” (Colorado State University Research Foundation, priority 1998, published 2005).

This series has as its system western corn root worm larvae. In words: Glass bead Y-tube choice-test bioassay (Example 18). The class given is in vivo, Diabrotica virgifera virgifera LeConte. The settings on record: for CO2 selective response, choice between two concentrations: base 1, 2, 5, 10, 20 mmol/mol. On the procedure: Bioassay Apparatus. The choice-test bioassay apparatus (FIG. 34) was constructed from a glass Y-tube filled with glass beads to simulate the thigmotactic cues of the soil environment that are ordinarily encountered by western corn root worm larvae. The glass Y-tube was fabricated by a local glassblower (9.5 mm inside diameter, 60° angles, with each branch 3 cm long), and clamped to a ring stand with 2 branches of the “Y” facing down. A glass connection tube (4 cm long, 0.5 cm diameter) with a piece of vinyl screen (2.5-mm mesh) held over 1 end by a 0.5-cm section of Teflon tubing (6 mm inside diameter) was inserted snugly into the end of each of the arms of the Y-tube to support the glass beads. Glass beads (3 mm, cat. no. 11-312A, Fisher Scientific, Pittsburgh, Pa.) were poured into the top of the Y-tube, filling the entire apparatus to within 0.5 cm of the top (250 beads). A 5-mm NMR tube cap (cat. no. 100-0050, Drummond Scientific, Broomall, Pa.) was fitted into the other end of each glass connection tube, with a hole to allow snug insertion of a 20-cm piece of slender Teflon tubing (0.8 mm inside diameter) for introduction of volatile chemical cues into each arm of the bioassay apparatus. Two techniques were used to introduce candidate chemical cues into the 2 arms of the apparatus: 1 used shell vials as chemical sources, and the other used syringes as chemical sources.
Shell Vial Sources. In this 1st approach (FIG. 34), two 35-ml polyethylene syringes (cat. no. 106-0490, Sherwood Medical, St. Louis, Mo.) were filled with ambient air, and the air was pumped through shell vials containing candidate chemical cues. Glass shell vials (4 ml) with polyethylene caps were used (cat. no. B7785-1, Baxter Healthcare, McGaw Park, Ill.). A 35-ml syringe was snugly connected with slender Teflon tubing (20 cm) to a hole in the cap of the shell vial. A 2nd piece of slender Teflon tubing was used to connect the shell vial to 1 arm of the bioassay apparatus. The 2 syringes used for each bioassay were connected to a syringe pump (Sage Model 355, Fisher Scientific, Pittsburgh, Pa.) that provided an airflow through each shell vial containing a candidate chemical treatment, and subsequently into a choice arm of the bioassay apparatus. For the shell vial sources of candidate chemical compounds, the shell vial containing either a carbonated water dilution or a corn seed or cut corn roots was left open for 5 min to allow the gas concentrations to reach equilibrium. The vial was capped, and the syringe pump was started, providing an airflow of 1.0 ml/min from each syringe.
Syringe Sources. In this 2nd approach (FIG. 39), 35-ml polyethylene syringes were filled directly with candidate chemical cues (such as the headspace from a container of germinating corn, a sample of CO2 mixed with air, or the headspace from a bottle of carbonated water). Each of the 2 syringes was connected with slender Teflon tubing to 1 arm of the bioassay apparatus. The 2 syringes used for each bioassay were connected to a syringe pump that was adjusted to provide an airflow of 1 ml/min from each syringe.
Bioassay Procedure. For bioassays, 20 newly hatched 1st instars (0-12 hours old) were collected from tubs containing eggs in soil (by using a camel's hair brush) and placed in a covered 5-mm NMR cap with 2 holes (1 mm diameter) drilled in the bottom (FIGS. 34 and 39). These holes were temporarily plugged with a piece of wire bent into a U-shape. The open end of the NMR cap was sealed with a small square of cellophane held in place with a plastic tube (a piece of soda straw) that fit snugly over the open end. The Y-tube apparatus was assembled and filled with glass beads and the appropriate treatment and control sources (shell vials or syringes) were connected to the arms of the Y-tube. The syringe pump was set to provide a flow of 1 ml/min and turned on. […]

Molecules are shown by their SMILES. Where “and” joins values, the source holds several entries; their conditions need not be identical. Identical values can stand only once. Entries after “also recorded” stand apart in the source; their conditions may differ.

`O=C=O` [CO2, carbon dioxide]: the “CO2 selective response, equal amounts of CO2 on both sides” value (1, 2, 5, 10, or 20 mmol/mol both sides) is “no significant differences in attraction were observed”. For the same compound, where the note is “300 or 900 mmol/mol CO2”, the “larval attraction at high CO2” value is “not attracted”. Also, the “toxic symptoms of larvae at high CO2” value (300 or 900 mmol/mol CO2) is given as “exhibited toxic symptoms; also recorded: lethargic when removed from the apparatus”. Besides, the “time to recover normal movement” value (after removal from apparatus, 300 or 900 mmol/mol CO2) is 5 to 10 min. Moreover, where the note is “base 1 mmol/mol”, the “smallest difference between the 2 choices still attractive” value is recorded as 0.125 mmol/mol. The “CO2 selective response, choice between two concentrations” value (difference 0.125 mmol/mol) is given as “significantly greater attraction was observed to 1.125 mmol/mol than to 1 mmol/mol; also recorded: no difference in attraction was observed in any of the tests at higher concentrations”; the “CO2 selective response, choice between two concentrations” value (difference 0.25 mmol/mol) is “more attracted to the higher CO2 concentration for 1 versus 1.25 mmol/mol (FIG. 48), and for 2 versus 2.25 mmol/mol; also recorded: no difference in attraction was observed for 5 versus 5.25 mmol/mol (FIG. 50), for 10 versus 10.25 (FIG. 51) mmol/mol, or for 20 versus 20.25 mmol/mol”; the “CO2 selective response, choice between two concentrations” value (difference 0.50 mmol/mol) is recorded as “no difference in attraction was observed for 20 versus 20.50 mmol/mol”. Besides, the “excess of CO2 concentration over control at which larvae were first attracted” value (selective response experiments) was determined as 12.5%. For the same compound, the “highest concentration of CO2 to which the larvae were attracted” value (versus ambient air control) was 100 mmol/mol and 85.60±1.20 mmol/mol. Where the note is “versus ambient air control (0.91-0.99 mmol/mol)”, the “lowest concentration of CO2 attractive to the larvae” value is on record as 1.125±0.04 mmol/mol.
